Experimental data: patent US9695155B2, “Herbicidal substituted pyrimidinyloxy benzene compounds” (E. I. DU PONT DE NEMOURS AND COMPANY, priority 2013, dated 2017)

Columns and labels:
[1] = test system: giant foxtail; assay: Test A preemergence; type: in vivo, Setaria faberii; conditions: for Plant response rating, Foxtail, Giant: 125 g ai/ha, 0 to 100 scale where 0 is no effect and 100 is complete control; for Foxtail, Giant plant response rating: 500 g ai/ha, 0 to 100 scale, 0 no effect, 100 complete control, approx. 10 days
In short: (§1)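 Visual 0–100 rating (100 = complete control) taken about 10 d post-treatment relative to untreated checks. Preemergence: directed soil spray on sown loam/sand pots. Postemergence: seedlings 2–10 cm, 1–2 leaf. Non-phytotoxic solvent formulation with surfactant.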

[2] = test system: barnyardgrass; assay: Test A postemergence; type: in vivo, Echinochloa crus-galli; conditions: 0 to 100 scale where 0 is no effect and 100 is complete control
In short: as §1

[3] = test system: pigweed; assay: Test A postemergence; type: in vivo, Amaranthus retroflexus; conditions: 0 to 100 scale where 0 is no effect and 100 is complete control
In short: as §1

[4] = test system: barnyardgrass; assay: Test B flooded paddy test; type: in vivo, Echinochloa crus-galli; conditions: Flood, 250 g ai/ha; 0 to 100 scale where 0 is no effect and 100 is complete control
In short: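 Flooded to 3 cm at the 2-leaf stage, pots received compound through the paddy water and were kept at that depth under greenhouse conditions. After 13–15 days, effect was rated by eye relative to controls, 0 = none and 100 = complete control.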

[5] = test system: galium; assay: Test C preemergence; type: in vivo, Galium aparine; conditions: for Galium plant response rating: preemergence; for Plant response rating, Galium: Preemergence, 31 g ai/ha, scale 0 to 100, 0 no effect, 100 complete control
In short: (§2)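 Whole-plant greenhouse test with surfactant-containing solvent formulation, applied preemergence to sown loam–sand pots or postemergence to 2–18 cm plants. Scored by eye 13 to 15 days on, 0–100 scale.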

[6] = test system: morningglory; assay: Test C preemergence; type: in vivo, Ipomoea coccinea; conditions: for Morningglory plant response rating: preemergence; for Plant response rating, Morningglory: Preemergence, 31 g ai/ha, scale 0 to 100, 0 no effect, 100 complete control
In short: as §2

[7] = test system: soybean; assay: Test C preemergence; type: in vivo, Glycine max; conditions: for Soybean plant response rating: preemergence; for Plant response rating, Soybean: Preemergence, 31 g ai/ha, scale 0 to 100, 0 no effect, 100 complete control
In short: as §2

[8] = test system: barnyardgrass; assay: Test C preemergence; type: in vivo, Echinochloa crus-galli; conditions: for Barnyardgrass plant response rating: preemergence; for Plant response rating, Barnyardgrass: Preemergence, 31 g ai/ha, scale 0 to 100, 0 no effect, 100 complete control
In short: as §2

[9] = test system: oilseed rape; assay: Test C preemergence; type: in vivo, Brassica napus; conditions: for Oilseed Rape plant response rating: preemergence; for Plant response rating, Oilseed Rape: Preemergence, 31 g ai/ha, scale 0 to 100, 0 no effect, 100 complete control
In short: as §2

[10] = test system: waterhemp; assay: Test C preemergence; type: in vivo, Amaranthus rudis; conditions: for Waterhemp plant response rating: preemergence; for Plant response rating, Waterhemp: Preemergence, 31 g ai/ha, scale 0 to 100, 0 no effect, 100 complete control
In short: as §2

[11] = test system: galium; assay: Test C postemergence; type: in vivo, Galium aparine; conditions: for Galium plant response rating: 16 g ai/ha, visual rating; for Galium plant response rating / Plant response rating (0 to 100), Galium: postemergence; for Galium plant response rating / Plant response rating, Galium: scale 0 to 100 (0 no effect, 100 complete control); for Plant response rating (0 to 100), Galium: 125 g ai/ha; for Plant response rating, Galium: Postemergence
In short: as §2

[12] = test system: johnsongrass; assay: Test C postemergence; type: in vivo, Sorghum halepense; conditions: for Johnsongrass plant response rating: 16 g ai/ha, visual rating; for Johnsongrass plant response rating / Plant response rating (0 to 100), Johnsongrass: postemergence; for Johnsongrass plant response rating / Plant response rating, Johnsongrass: scale 0 to 100 (0 no effect, 100 complete control); for Plant response rating (0 to 100), Johnsongrass: 125 g ai/ha; for Plant response rating, Johnsongrass: Postemergence
In short: as §2

[13] = test system: soybean; assay: Test C postemergence; type: in vivo, Glycine max; conditions: for Plant response rating (0 to 100), Soybean: 125 g ai/ha, postemergence; for Plant response rating, Soybean: Postemergence, scale 0 to 100 (0 no effect, 100 complete control)
In short: as §2

[14] = test system: velvetleaf; assay: Test C postemergence; type: in vivo, Abutilon theophrasti; conditions: for Plant response rating (0 to 100), Velvetleaf: 125 g ai/ha, postemergence; for Plant response rating, Velvetleaf: Postemergence, scale 0 to 100 (0 no effect, 100 complete control)
In short: as §2

[15] = test system: chickweed; assay: Test C postemergence; type: in vivo, Stellaria media; conditions: for Chickweed plant response rating: 16 g ai/ha, visual rating; for Chickweed plant response rating / Plant response rating (0 to 100), Chickweed: postemergence; for Chickweed plant response rating / Plant response rating, Chickweed: scale 0 to 100 (0 no effect, 100 complete control); for Plant response rating (0 to 100), Chickweed: 125 g ai/ha; for Plant response rating, Chickweed: Postemergence
In short: as §2

[16] = 16 g ai/ha, scale 0 to 100 (0 no effect, 100 complete control)
[17] = 62 g ai/ha, scale 0 (no effect) to 100 (complete control)
[18] = 125 g ai/ha, scale 0 (no effect) to 100 (complete control)

N#Cc1cccc(Oc2ncc(F)cn2)c1-n1cc(I)cn1 [Compound 86]
Plant response rating, Foxtail, Giant [1]: 100
Foxtail, Giant plant response rating [1]: 100
Plant response rating, Barnyardgrass ([2]; 125 g ai/ha): 90
Plant response rating, Barnyardgrass ([2]; 500 g ai/ha): 100
Plant response rating, Pigweed ([3]; 125 g ai/ha): 100
Plant response rating, Pigweed ([3]; 500 g ai/ha): 100
Plant response rating, Barnyardgrass [4]: 0
Galium plant response rating [5, 16]: 90
Galium plant response rating [5, 17]: 98
Galium plant response rating [5, 18]: 90
Plant response rating, Galium [5]: 80
Morningglory plant response rating [6, 16]: 10
Morningglory plant response rating [6, 17]: 60
Morningglory plant response rating [6, 18]: 100
Plant response rating, Morningglory [6]: 25
Soybean plant response rating [7, 16]: 35
Soybean plant response rating [7, 17]: 75
Soybean plant response rating [7, 18]: 85
Plant response rating, Soybean [7]: 45
Barnyardgrass plant response rating [8, 16]: 5
Barnyardgrass plant response rating [8, 17]: 40
Barnyardgrass plant response rating [8, 18]: 95
Plant response rating, Barnyardgrass [8]: 10
Oilseed Rape plant response rating [9, 16]: 25
Oilseed Rape plant response rating [9, 17]: 100
Oilseed Rape plant response rating [9, 18]: 100
Plant response rating, Oilseed Rape [9]: 100
Waterhemp plant response rating [10, 16]: 100
Waterhemp plant response rating [10, 17]: 100
Waterhemp plant response rating [10, 18]: 100
Plant response rating, Waterhemp [10]: 100
Galium plant response rating ([11]; 13 to 15 days): 55
Plant response rating (0 to 100), Galium [11]: 80
Plant response rating, Galium ([11]; 31 g ai/ha, 13 to 15 days): 60
Plant response rating, Galium ([11]; 62 g ai/ha): 80
Johnsongrass plant response rating ([12]; 13 to 15 days): 0
Plant response rating (0 to 100), Johnsongrass [12]: 5
Plant response rating, Johnsongrass ([12]; 31 g ai/ha, 13 to 15 days): 5
Plant response rating, Johnsongrass ([12]; 62 g ai/ha): 5
Plant response rating (0 to 100), Soybean [13]: 75
Plant response rating, Soybean ([13]; 31 g ai/ha, 13 to 15 days): 60
Plant response rating, Soybean ([13]; 62 g ai/ha): 70
Plant response rating (0 to 100), Velvetleaf [14]: 65
Plant response rating, Velvetleaf ([14]; 31 g ai/ha, 13 to 15 days): 25
Plant response rating, Velvetleaf ([14]; 62 g ai/ha): 65
Chickweed plant response rating ([15]; 13 to 15 days): 40
Plant response rating (0 to 100), Chickweed [15]: 80
Plant response rating, Chickweed ([15]; 31 g ai/ha, 13 to 15 days): 55
Plant response rating, Chickweed ([15]; 62 g ai/ha): 60

N#Cc1cccc(Oc2ncc(Br)cn2)c1-n1cc(I)cn1 [Compound 88]
Plant response rating, Foxtail, Giant [1]: 100
Foxtail, Giant plant response rating [1]: 100
Plant response rating, Barnyardgrass ([2]; 125 g ai/ha): 60
Plant response rating, Barnyardgrass ([2]; 500 g ai/ha): 80
Plant response rating, Pigweed ([3]; 125 g ai/ha): 100
Plant response rating, Pigweed ([3]; 500 g ai/ha): 100
Plant response rating, Barnyardgrass [4]: 0
Galium plant response rating [5, 16]: 0
Galium plant response rating [5, 17]: 90
Galium plant response rating [5, 18]: 80
Plant response rating, Galium [5]: 50
Morningglory plant response rating [6, 16]: 0
Morningglory plant response rating [6, 17]: 40
Morningglory plant response rating [6, 18]: 90
Plant response rating, Morningglory [6]: 5
Soybean plant response rating [7, 16]: 0
Soybean plant response rating [7, 17]: 40
Soybean plant response rating [7, 18]: 90
Plant response rating, Soybean [7]: 5
Barnyardgrass plant response rating [8, 16]: 5
Barnyardgrass plant response rating [8, 17]: 35
Barnyardgrass plant response rating [8, 18]: 95
Plant response rating, Barnyardgrass [8]: 5
Oilseed Rape plant response rating [9, 16]: 10
Oilseed Rape plant response rating [9, 17]: 70
Oilseed Rape plant response rating [9, 18]: 100
Plant response rating, Oilseed Rape [9]: 100
Waterhemp plant response rating [10, 16]: 98
Waterhemp plant response rating [10, 17]: 100
Waterhemp plant response rating [10, 18]: 100
Plant response rating, Waterhemp [10]: 100
Galium plant response rating ([11]; 13 to 15 days): 70
Plant response rating (0 to 100), Galium [11]: 95
Plant response rating, Galium ([11]; 31 g ai/ha, 13 to 15 days): 80
Plant response rating, Galium ([11]; 62 g ai/ha): 70
Johnsongrass plant response rating ([12]; 13 to 15 days): 0
Plant response rating (0 to 100), Johnsongrass [12]: 10
Plant response rating, Johnsongrass ([12]; 31 g ai/ha, 13 to 15 days): 0
Plant response rating, Johnsongrass ([12]; 62 g ai/ha): 5
Plant response rating (0 to 100), Soybean [13]: 65
Plant response rating, Soybean ([13]; 31 g ai/ha, 13 to 15 days): 65
Plant response rating, Soybean ([13]; 62 g ai/ha): 95
Plant response rating (0 to 100), Velvetleaf [14]: 55
Plant response rating, Velvetleaf ([14]; 31 g ai/ha, 13 to 15 days): 35
Plant response rating, Velvetleaf ([14]; 62 g ai/ha): 40
Chickweed plant response rating ([15]; 13 to 15 days): 5
Plant response rating (0 to 100), Chickweed [15]: 90
Plant response rating, Chickweed ([15]; 31 g ai/ha, 13 to 15 days): 15
Plant response rating, Chickweed ([15]; 62 g ai/ha): 20
